Numbered stars: 1 amine (or outer) side, 2 acyl side, 3 side chain; on linkers, the order of the positions; unused ones are H or OH. Bridge positions count the residues as written; N and C are the ends. Square brackets hold non-standard residues; d marks the D form. Side chains are listed from the residue outwards. Peptide text beside a SMILES is read from it. * marks the point of attachment. S7 = C[C@@](CCCCCC=[*:3])(N[*:1])C(=O)[*:2]; X1 = C[C@](CCCCC=[*:3])(N[*:1])C(=O)[*:2]; γGlu = O=C(O)[C@H](CCC(=O)[*:2])N[*:1]; Palmitoyl = CCCCCCCCCCCCCCCC(=O)*; Aib = CC(C)(N)C(=O)O

Data on six compounds can be found in US20230270825A1, “STAPLED OLEFIN CO-AGONISTS OF THE GLUCAGON AND GLP-1 RECEPTORS” (Merck Sharp & Dohme LLC, priority 2019, published 2023).

In the test the target is T1, human GCGR (Homo sapiens, UniProt P47871).
T1 construct: expressed in transfected cells; assay-ready frozen cells grown with Blasticidin and Hygromycin
Put plainly: cAMP activity assay, cells expressing human GCGR (HitHunter cAMP XS). The conditions noted are these: for EC50: cAMP production, 1 hour at room temperature, assay buffer with or without 20% human serum (not stated which); for hGCGR/hGLP1R (hTone): ratio of human GCGR EC50 to human GLP1R EC50. In kind it is cell-based. The method, then: Activity of the peptides at the Glucagon receptor (GCGR) and GLP-1 receptor (GLP1R) was measured in a cAMP activity assay.
Peptides were dissolved in 100% DMSO and serially diluted to generate 10 point titrations. The peptide solutions were then transferred into 384-well assay plates (150 nL/well).
Assay ready frozen cells expressing human GLP1R or human GCGR were suspended in growth media consisting of DMEM medium (GIBCO), 10% FBS (GIBCO), 1x NEAA(GIBCO), 1x P/S (GIBCO), 10ug/ml Blasticidin (GIBCO) and 200 µg/mL Hygromycin (GIBCO). Cells were then diluted in assay buffer consisting of PBS (GIBCO), 7.5% BSA (Perkin Elmer), 100 µM RO 20-1724 (Sigma), with or without 20% human serum (MP Biomedical). The cell suspensions (15 µL) were then added to the assay plates containing the peptide solutions (30,000 cells/well for human GCGR; 10.000 cells/well for human GLP1R). The cells were incubated for 1 hour at room temperature in the dark. Production of cAMP was determined using HitHunter™ cAMPXS kits (DiscoverX) following manufacturer protocol. The plates were incubated for overnight at room temperature in the dark. Luminescence was measured using an EnVision Multilabel plate reader (Perkin Elmer). Native GLP-1 and Glucagon (Bachem) are used as control peptides. EC50 values were calculated using uses a 4 parameter logistic fit based on the Levenberg-Marquardt algorithm.
(Changes in cAMP serve as a functional read-out for many G protein-coupled receptors.)

T1 sequence (P47871 26-477): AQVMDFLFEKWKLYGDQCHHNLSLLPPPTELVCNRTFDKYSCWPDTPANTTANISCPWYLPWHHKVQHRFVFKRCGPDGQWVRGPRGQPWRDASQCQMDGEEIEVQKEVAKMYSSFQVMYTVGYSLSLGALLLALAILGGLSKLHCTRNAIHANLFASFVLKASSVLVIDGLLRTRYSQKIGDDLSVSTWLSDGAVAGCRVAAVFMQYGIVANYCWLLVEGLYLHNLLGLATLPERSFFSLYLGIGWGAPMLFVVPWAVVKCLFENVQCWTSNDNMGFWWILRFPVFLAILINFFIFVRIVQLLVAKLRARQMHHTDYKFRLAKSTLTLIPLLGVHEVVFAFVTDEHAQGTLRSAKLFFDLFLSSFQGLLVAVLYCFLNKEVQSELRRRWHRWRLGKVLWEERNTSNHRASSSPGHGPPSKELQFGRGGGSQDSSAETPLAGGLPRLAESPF

By EC50 is commonly meant the concentration needed to bring the measured effect to its halfway point. A higher EC50 goes with a need for much substance. With `CCCCCCCCCCCCCCCC(=O)N[C@@H](CCC(=O)N[C@@H](CCC(=O)NCCCC[C@H](NC(=O)[C@H](CC(=O)O)NC(=O)[C@H](CO)NC(=O)[C@@H](NC(=O)[C@H](Cc1ccccc1)NC(=O)[C@@H](NC(=O)CNC(=O)[C@H](CCC(N)=O)NC(=O)[C@@H](CO)NC(=O)[C@@H](N)Cc1c[nH]cn1)[C@@H](C)O)[C@@H](C)O)C(=O)N[C@@H](CO)C(=O)N[C@]1(C)CCCCC=CCCCCC[C@@](C)(C(=O)N[C@@H](CCC(N)=O)C(=O)N[C@@H](CC(=O)O)C(=O)N[C@@H](Cc2ccccc2)C(=O)N[C@H](C(=O)N[C@@H](CCC(N)=O)C(=O)N[C@@H](Cc2c[nH]c3ccccc23)C(=O)N[C@@H](CC(C)C)C(=O)N[C@@H](CC(C)C)C(=O)N[C@@H](CC(=O)O)C(=O)N[C@H](C(N)=O)[C@@H](C)O)C(C)C)NC(=O)[C@H](C)NC(=O)[C@H](CCCNC(=N)N)NC(=O)[C@H](CCC(=O)O)NC(=O)[C@H](CC(=O)O)NC(=O)[C@H](CC(C)C)NC(=O)[C@H](Cc2ccc(O)cc2)NC1=O)C(=O)O)C(=O)O` [compound 7] (H-H[dS]QGTFTSDK([γGlu-γGlu-Palmitoyl])S[X1]YLDERA[S7]QDFVQWLLDT-NH2; staple 12-19), a half-maximal effect (EC50) was put at 5 nM. This lies in the single-digit nanomolar range.

For the compound `CCCCCCCCCCCCCCCC(=O)N[C@@H](CCC(=O)N[C@@H](CCC(=O)NCCCC[C@H](NC(=O)[C@H](CC(=O)O)NC(=O)[C@H](CO)NC(=O)[C@@H](NC(=O)[C@H](Cc1ccccc1)NC(=O)[C@@H](NC(=O)CNC(=O)[C@H](CCC(N)=O)NC(=O)[C@@H](CO)NC(=O)[C@@H](N)Cc1c[nH]cn1)[C@@H](C)O)[C@@H](C)O)C(=O)N[C@@H](CO)C(=O)N[C@@H](CCCCN)C(=O)N[C@@H](Cc1ccc(O)cc1)C(=O)N[C@@H](CC(C)C)C(=O)N[C@@H](CC(=O)O)C(=O)N[C@@H](CCC(=O)O)C(=O)N[C@]1(C)CCCCC=CCCCCC[C@@](C)(C(=O)N[C@@H](Cc2c[nH]c3ccccc23)C(=O)N[C@@H](CC(C)C)C(=O)N[C@@H](CC(C)C)C(=O)N[C@@H](CC(=O)O)C(=O)N[C@H](C(N)=O)[C@@H](C)O)NC(=O)[C@H](C(C)C)NC(=O)[C@H](Cc2ccccc2)NC(=O)[C@H](CC(=O)O)NC(=O)[C@H](CCC(N)=O)NC(=O)[C@H](C)NC(=O)[C@H](C)NC1=O)C(=O)O)C(=O)O` [compound 8] (H-H[dS]QGTFTSDK([γGlu-γGlu-Palmitoyl])SKYLDE[X1]AAQDFV[S7]WLLDT-NH2; staple 17-24), the EC50 was 5 nM.

The compound `CC(C)C[C@H](NC(=O)[C@H](Cc1ccc(O)cc1)NC(=O)[C@H](CCCCN)NC(=O)[C@H](CO)NC(=O)[C@H](CCCCN)NC(=O)[C@H](CC(=O)O)NC(=O)[C@H](CO)NC(=O)[C@@H](NC(=O)[C@H](Cc1ccccc1)NC(=O)[C@@H](NC(=O)CNC(=O)[C@H](CCC(N)=O)NC(=O)[C@@H](CO)NC(=O)[C@@H](N)Cc1c[nH]cn1)[C@@H](C)O)[C@@H](C)O)C(=O)N[C@@H](CC(=O)O)C(=O)N[C@@H](CCC(=O)O)C(=O)N[C@]1(C)CCCCC=CCCCCC[C@@](C)(C(=O)N[C@@H](Cc2c[nH]c3ccccc23)C(=O)N[C@@H](CC(C)C)C(=O)N[C@@H](CC(C)C)C(=O)N[C@@H](CC(=O)O)C(=O)N[C@H](C(N)=O)[C@@H](C)O)NC(=O)[C@H](C(C)C)NC(=O)[C@H](Cc2ccccc2)NC(=O)[C@H](CC(=O)O)NC(=O)[C@H](CCC(N)=O)NC(=O)[C@H](C)NC(=O)[C@H](C)NC1=O` [compound 9] (H-H[dS]QGTFTSDKSKYLDE[X1]AAQDFV[S7]WLLDT-NH2; staple 17-24) had an EC50 of 5 nM.

For the compound `CCCCCCCCCCCCCCCC(=O)N[C@@H](CCC(=O)N[C@@H](CCC(=O)NCCCC[C@H](NC(=O)[C@H](CC(=O)O)NC(=O)[C@H](CO)NC(=O)[C@@H](NC(=O)[C@H](Cc1ccccc1)NC(=O)[C@@H](NC(=O)CNC(=O)[C@H](CCC(N)=O)NC(=O)[C@@H](CO)NC(=O)[C@@H](N)Cc1c[nH]cn1)[C@@H](C)O)[C@@H](C)O)C(=O)N[C@@H](CO)C(=O)N[C@@H](CCCCN)C(=O)N[C@@H](Cc1ccc(O)cc1)C(=O)N[C@@H](CC(C)C)C(=O)N[C@@H](CC(=O)O)C(=O)N[C@@H](CCC(=O)O)C(=O)N[C@@H](CCCNC(=N)N)C(=O)N[C@@H](C)C(=O)N[C@@H](C)C(=O)N[C@]1(C)CCCCC=CCCCCC[C@@](C)(C(=O)N[C@@H](CC(=O)O)C(=O)N[C@H](C(N)=O)[C@@H](C)O)NC(=O)[C@H](CC(C)C)NC(=O)[C@H](Cc2c[nH]c3ccccc23)NC(=O)[C@H](CCC(N)=O)NC(=O)[C@H](C(C)C)NC(=O)[C@H](Cc2ccccc2)NC(=O)[C@H](CC(=O)O)NC1=O)C(=O)O)C(=O)O` [compound 10] (H-H[dS]QGTFTSDK([γGlu-γGlu-Palmitoyl])SKYLDERAA[X1]DFVQWL[S7]DT-NH2; staple 20-27), the “hGCGR/hGLP1R (hTone)” value stood at 19.02.

Turning to `CC(C)C[C@H](NC(=O)[C@H](Cc1ccc(O)cc1)NC(=O)[C@H](CCCCN)NC(=O)[C@H](CO)NC(=O)[C@H](CCCCN)NC(=O)[C@H](CC(=O)O)NC(=O)[C@H](CO)NC(=O)[C@@H](NC(=O)[C@H](Cc1ccccc1)NC(=O)[C@@H](NC(=O)CNC(=O)[C@H](CCC(N)=O)NC(=O)[C@@H](CO)NC(=O)[C@@H](N)Cc1c[nH]cn1)[C@@H](C)O)[C@@H](C)O)C(=O)N[C@@H](CC(=O)O)C(=O)N[C@@H](CCC(=O)O)C(=O)N[C@@H](CCCNC(=N)N)C(=O)N[C@@H](C)C(=O)N[C@@H](C)C(=O)N[C@]1(C)CCCCC=CCCCCC[C@@](C)(C(=O)N[C@@H](CC(=O)O)C(=O)N[C@H](C(N)=O)[C@@H](C)O)NC(=O)[C@H](CC(C)C)NC(=O)[C@H](Cc2c[nH]c3ccccc23)NC(=O)[C@H](CCC(N)=O)NC(=O)[C@H](C(C)C)NC(=O)[C@H](Cc2ccccc2)NC(=O)[C@H](CC(=O)O)NC1=O` [compound 11] (H-H[dS]QGTFTSDKSKYLDERAA[X1]DFVQWL[S7]DT-NH2; staple 20-27), it took 5 nM to reach a half-maximal effect (EC50) and the “hGCGR/hGLP1R (hTone)” value is on record as 1.82.

Regarding `CCCCCCCCCCCCCCCC(=O)N[C@@H](CCC(=O)N[C@@H](CCC(=O)NCCCC[C@H](NC(=O)[C@H](CC(=O)O)NC(=O)[C@H](CO)NC(=O)[C@@H](NC(=O)[C@H](Cc1ccccc1)NC(=O)[C@@H](NC(=O)CNC(=O)[C@H](CCC(N)=O)NC(=O)C(C)(C)NC(=O)[C@@H](N)Cc1c[nH]cn1)[C@@H](C)O)[C@@H](C)O)C(=O)N[C@@H](CO)C(=O)N[C@@H](CCCCN)C(=O)N[C@@H](Cc1ccc(O)cc1)C(=O)N[C@@H](CC(C)C)C(=O)N[C@@H](CC(=O)O)C(=O)NC(C)(C)C(=O)N[C@@H](CCCNC(=N)N)C(=O)N[C@@H](C)C(=O)N[C@@H](C)C(=O)N[C@@H](CCC(N)=O)C(=O)N[C@]1(C)CCCCC=CCCCCC[C@@](C)(C(=O)N[C@H](C(=O)N[C@@H](CCCCN)C(=O)N[C@@H](CCC(N)=O)C(=O)O)[C@@H](C)O)NC(=O)[C@H](CCSC)NC(=O)[C@H](CC(C)C)NC(=O)[C@H](Cc2c[nH]c3ccccc23)NC(=O)[C@H](CCC(N)=O)NC(=O)[C@H](C(C)C)NC(=O)[C@H](Cc2ccccc2)NC1=O)C(=O)O)C(=O)O` [compound 13] (H-H[Aib]QGTFTSDK([γGlu-γGlu-Palmitoyl])SKYLD[Aib]RAAQ[X1]FVQWLM[S7]TKQ-OH; staple 21-28), the EC50 amounted to 5 nM and the “hGCGR/hGLP1R (hTone)” value came to 19.11.
